Reference: ChEMBL document CHEMBL1201862, “PubChem BioAssay data set” (2004)
Calls of active or inactive are those of the source.

Experiments:
[1] = Luminescence Cell-Based Dose Response HTS to Identify Activators of Luciferase Translation or Activity in H4 […] Cells. [Related pubchem assays: 1829 (Project Summary), 1814 (Primary HTS)]; assay type: functional
[2] = Vero cell cytotoxicity, dose response, cytotoxicity control for Vif-APOBEC3G degradation inhibitor project, Vero cells (AID 1117358); assay type: functional; settings: Human immunodeficiency virus 1, Vero
[3] = Luminescence Cell-Based Dose Response HTS to Identify Inhibitors of 5'UTR Stem-Loop Driven Prion Protein mRNA Translation in H4 Neuroglioblastoma Cells. [Related pubchem assays: 1827 (Project Summary), 1813 (Primary HTS)]; assay type: functional
[4] = inhibitors of SNCA 5'UTR-driven reporter translation, confirmation, H4 neuroglioma cells, luminescence (AID 1988); assay type: functional, cell-based
HEK293 [5] = assay: inhibitors of LMP1-driven NF-kB reporter, dose response, cell-based, HEK293, luciferase, cherry-pick (AID 588343); assay type: functional; settings: Homo sapiens
[6] = A549 cell cytotoxicity, dose response, cytotoxicity control, plate reader, cherry-pick, antagonist series (AID 743412); assay type: functional, cell-based
[7] = HepG2 cell cytotoxicity, dose response, cytotoxicity control, plate reader, cherry-pick, antagonist series (AID 743416); assay type: functional, cell-based
[8] = LGR2 antagonists, dose response, cell-based, HEK293, CRE-luciferase reporter, cherry pick, set 2 (AID 743343); assay type: functional;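 further: transfected cells were stimulated with diluted bursicon conditioned medium after compound addition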
[9] = MC4R antagonists, dose response, counter-screen for LGR2 antagonist project, cell-based, plate reader, cherry pick (AID 743444); assay type: functional;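 further: transfected HEK 293 cells stimulated with alpha-MSH peptide; potency of inhibitors of the alpha-MSH evoked signal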
[10] = target: Oxysterols receptor LXR-beta (Homo sapiens, UniProt P55055); assay type: functional, cell-based;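 further: Cell-based luminescence dose-response assay of agonist activity at LXR, run as a confirmatory counterscreen to a daf-12 agonist screen; HEK293 cells with Gal4-LXR fusion and GAL4-driven luciferase reporter; agonist potency from rising luciferase signal of a Gal4-LXR reporter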
[11] = HEK293 cell cytotoxicity, dose response, cytotoxicity control, plate reader, cherry-picked samples (AID 743446); assay type: functional, cell-based
fMet-Leu-Phe receptor = fMet-Leu-Phe receptor (Homo sapiens, UniProt P21462); assay: FPR ligands, dose response (AID 519); assay type: functional
[12] = target: NAD-dependent protein deacylase sirtuin-5, mitochondrial (Homo sapiens, UniProt Q9NXA8); assay: SIRT5 desuccinylase inhibitors, dose response, biochemical, fluorescence imaging, cherry-pick, set 5 (AID 720591);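 further: desuccinylation of succinyl peptide AMC substrate read as fluorescence after trypsin release; potency of inhibitors that lower fluorescence and may act on trypsin instead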
HEK293 [13] = assay: HEK293T cell cytotoxicity, dose response, cytotoxicity control, ATP luminescence, cherry-pick samples (AID 687005); assay type: functional, cell-based; settings: Homo sapiens;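 further: cells exposed to compound for 48 hours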
[14] = HEK293 Cytotoxicity Assay Measured in Cell-Based System Using Plate Reader - 7071-01_Inhibitor_Dose_CherryPick_Activity_Set2.; assay type: functional
Paired box protein Pax-8 = Paired box protein Pax-8 (Homo sapiens, UniProt Q06710); assay: inhibitors of PAX8-driven TPO luciferase reporter, dose response, RMG-I cells, cherry-pick (AID 687027); assay type: functional, cell-based;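 further: luciferase reporter driven by Pax8 target thyroperoxidase promoter measured by SteadyGlo luminescence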
[15] = inhibitors of PGC1a acetylation in cells, dose response, cell-based, cherry-picked samples (AID 720514); assay type: functional;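 further: potency may reflect raised or lowered acetylation signal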
[16] = inhibitors of CMV-promoter luciferase reporter, dose response, counter-screen for Pax8 inhibitor project, cell-based, HEK293, luminescence, dry powder (AID 743020); assay type: functional
[17] = cytotoxicity in OVCAR8 ovarian cancer cells, dose response, PAX8 project, cell-based, plate reader, dry powder samples (AID 743197); assay type: functional; settings: OVCAR-8
Protein Wnt-3a = Protein Wnt-3a (Mus musculus, UniProt P27467); assay: SAR analysis of small molecule antagonists of Gli-SUFU in a Wnt3a luminescent reporter assay.; assay type: functional
[18] = T. cruzi growth inhibition in host cells, dose response, cell-based, plate reader, dry powder, set 2 (AID 652275); assay type: functional
[19] = Concentration-dependent survival of SW480 colon cancer line, luminescence detection with CellTiter-Glo, half-maximal inhibitory concentration (AID 1117338); assay type: functional
[20] = RKO cell viability reduction, dose response, CellTiter-Glo luminescence (AID 1117322); assay type: functional
[21] = cytotoxicity toward HCT116 cells – cell-based, CellTiter-Glo luminescence, IC50, dose response (AID 1117332); assay type: functional; settings: HCT-116
[22] = SNU-C1 cell viability reduction, dose response, CellTiter-Glo luminescence (AID 1117323); assay type: functional, cell-based
[23] = cytotoxicity toward Colo320 cells – cell-based, CellTiter-Glo luminescence, IC50, dose response (AID 1117334); assay type: functional; settings: COLO 320
[24] = cytotoxicity toward HT-29 cells – cell-based, CellTiter-Glo luminescence, IC50, dose response (AID 1117330); assay type: functional
[25] = CellTiter-Glo luminescent dose response of DLD-1 viability loss (AID 1117352); assay type: functional
[26] = HCT116 cell viability decrease, GSK3B pretreatment – CellTiter-Glo, IC50, dose response (AID 1117339); assay type: functional; settings: HCT-116
[27] = HeLa 2N DNA content increase, dose response, cell-based, IC50 (AID 1117349); assay type: functional
[28] = HeLa 4N DNA content increase, dose response, cell-based, IC50 (AID 1117351); assay type: functional

Chain of fMet-Leu-Phe receptor (P21462 whole entry): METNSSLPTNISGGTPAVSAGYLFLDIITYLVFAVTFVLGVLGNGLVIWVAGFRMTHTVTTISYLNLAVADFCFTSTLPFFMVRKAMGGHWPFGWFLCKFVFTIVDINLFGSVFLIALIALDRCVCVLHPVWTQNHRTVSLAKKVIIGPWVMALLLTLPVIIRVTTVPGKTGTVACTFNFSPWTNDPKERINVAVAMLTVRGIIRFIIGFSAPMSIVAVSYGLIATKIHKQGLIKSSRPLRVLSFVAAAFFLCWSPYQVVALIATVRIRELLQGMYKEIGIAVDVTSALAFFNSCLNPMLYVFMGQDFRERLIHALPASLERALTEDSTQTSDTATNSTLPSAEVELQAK
Chain of Oxysterols receptor LXR-beta (P55055 whole entry, the tested form may be a part): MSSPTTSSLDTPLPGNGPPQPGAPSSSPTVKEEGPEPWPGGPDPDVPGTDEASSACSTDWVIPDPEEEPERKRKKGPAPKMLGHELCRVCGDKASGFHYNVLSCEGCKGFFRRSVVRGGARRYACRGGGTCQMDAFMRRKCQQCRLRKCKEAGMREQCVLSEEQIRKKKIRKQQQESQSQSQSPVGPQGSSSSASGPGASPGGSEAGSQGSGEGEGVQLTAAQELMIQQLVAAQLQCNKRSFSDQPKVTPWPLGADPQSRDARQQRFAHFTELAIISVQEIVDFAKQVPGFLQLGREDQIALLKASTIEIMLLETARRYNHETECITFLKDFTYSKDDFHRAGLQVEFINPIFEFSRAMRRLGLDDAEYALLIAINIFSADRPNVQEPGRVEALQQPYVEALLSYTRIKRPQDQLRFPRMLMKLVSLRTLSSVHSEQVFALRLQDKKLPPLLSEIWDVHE
Chain of Protein Wnt-3a (P27467 whole entry): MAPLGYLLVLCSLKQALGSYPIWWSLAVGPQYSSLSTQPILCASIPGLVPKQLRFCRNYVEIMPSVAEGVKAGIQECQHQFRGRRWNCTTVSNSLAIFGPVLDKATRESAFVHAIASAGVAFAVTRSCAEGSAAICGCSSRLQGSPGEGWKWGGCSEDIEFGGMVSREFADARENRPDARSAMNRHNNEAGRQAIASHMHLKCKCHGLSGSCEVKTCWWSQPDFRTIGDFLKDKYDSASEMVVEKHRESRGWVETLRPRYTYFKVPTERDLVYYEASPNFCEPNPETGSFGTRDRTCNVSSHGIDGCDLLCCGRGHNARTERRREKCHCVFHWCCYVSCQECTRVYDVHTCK
Chain of Paired box protein Pax-8 (Q06710 whole entry): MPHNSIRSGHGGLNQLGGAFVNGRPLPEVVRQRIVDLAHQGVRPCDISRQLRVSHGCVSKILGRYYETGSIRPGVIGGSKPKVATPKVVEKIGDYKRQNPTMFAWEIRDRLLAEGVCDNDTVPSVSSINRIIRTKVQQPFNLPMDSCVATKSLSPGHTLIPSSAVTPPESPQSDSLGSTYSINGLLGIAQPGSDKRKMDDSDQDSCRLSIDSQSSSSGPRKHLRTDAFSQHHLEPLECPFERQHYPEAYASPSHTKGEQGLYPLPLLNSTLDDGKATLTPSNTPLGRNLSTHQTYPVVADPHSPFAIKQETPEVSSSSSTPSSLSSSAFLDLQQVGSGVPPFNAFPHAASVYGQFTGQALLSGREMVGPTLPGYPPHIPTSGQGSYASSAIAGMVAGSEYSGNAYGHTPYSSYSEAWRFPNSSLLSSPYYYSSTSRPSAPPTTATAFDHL
Chain of NAD-dependent protein deacylase sirtuin-5, mitochondrial (Q9NXA8 whole entry): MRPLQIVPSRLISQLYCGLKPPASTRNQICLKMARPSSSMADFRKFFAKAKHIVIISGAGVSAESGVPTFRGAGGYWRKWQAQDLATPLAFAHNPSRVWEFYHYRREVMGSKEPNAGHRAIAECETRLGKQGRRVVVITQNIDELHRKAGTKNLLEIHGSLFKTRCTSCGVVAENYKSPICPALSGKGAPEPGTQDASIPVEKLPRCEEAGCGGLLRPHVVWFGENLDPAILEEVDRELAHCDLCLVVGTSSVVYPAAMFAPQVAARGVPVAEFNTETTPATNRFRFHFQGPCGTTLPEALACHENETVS

With `Cn1ncc2c(Nc3ccc4ccccc4c3)ncnc21` the EC50 [1] was 1.89 µM (active) and the CC50 [2] was > 40 µM (active).

For `Cc1ccc(CSc2nc3cc[nH]cc-3n2)cc1`, the EC50 [3] was 10.8 µM (active), the EC50 [4] was 7.38 µM (active) and the AC50 (HEK293 [5]) was 1.9 µM (active). The AC50 [6] was 26.5 µM (active), the AC50 [7] was 31.6 µM (active) and the AC50 [8] was 2.93 µM (active). The AC50 [9] was 2.98 µM (active), the EC50 [10] was > 67.5 µM (inactive) and the AC50 [11] was > 52 µM (inactive). The EC50 (cells) was > 67.5 µM (inactive).

With `O=C(NCc1cccnc1)C1c2ccccc2C(=O)N1C1CCCCCCC1` (stereo not given) the Ki (fMet-Leu-Phe receptor) was 40.9 µM (inactive).

With `O=C(NCC1(N2CCOCC2)CCCCC1)c1cccc(S(=O)(=O)Nc2ccc(F)cc2)c1` the AC50 [12] was > 30 µM (inactive).

In the case of `Cc1ccc(C2=NN(C(=O)c3ccc(Br)o3)C(c3ccc(C)cc3)C2)cc1` (stereo not given), the AC50 (HEK293 [13]) is reported as 20.2 µM (active) and the AC50 [14] is reported as 20.2 µM (active).

With `C[C@H](CO)N1C[C@H](C)[C@H](CN(C)Cc2ccc(Cl)c(Cl)c2)Oc2c(NC(=O)Nc3ccccc3)cccc2C1=O` the AC50 (HEK293 [13]) was 18.8 µM (active) and the AC50 [14] was 18.8 µM (active).

In the case of `C[C@@H]1CCCCO[C@H](CN(C)Cc2ccc3c(c2)OCO3)[C@@H](C)CN([C@@H](C)CO)C(=O)c2cc(NC(=O)Nc3ccc(C(F)(F)F)cc3)ccc2O1`, the AC50 (Paired box protein Pax-8) is reported as 17.3 µM (active), the AC50 [15] is reported as 11.3 µM (active) and the AC50 [16] is reported as 41.9 µM (active). For the same compound, the AC50 [17] was 19.6 µM (active).

In the case of `CN1CCN(c2cc(NC(=O)c3ccccc3)ncn2)CC1`, the IC50 (Protein Wnt-3a) is reported as > 21.8 µM (inactive).

In the case of `O=C(Cc1ccccn1)N1CCCCN2[C@@H](CO)[C@H](c3ccc(Br)cc3)[C@@H]2C1`, the AC50 [18] is reported as 2.31 µM (active).

In the case of `CCN(CC)C(=O)c1cccnc1` [NIKETHAMIDE], the IC50 [19] is reported as > 20 µM (inactive), the IC50 [20] is reported as > 20 µM (inactive) and the IC50 [21] is reported as > 20 µM (inactive). For the same compound, the IC50 [22] was > 20 µM (inactive), the IC50 [23] was > 20 µM (inactive) and the IC50 [24] was > 20 µM (inactive). For the same compound, the IC50 [25] was > 20 µM (inactive) and the IC50 [26] was > 20 µM (inactive).

With `CCCN(CCC)C(=O)C(CCC(=O)OCCCN1CCN(CCOC(=O)Cc2c(C)n(C(=O)c3ccc(Cl)cc3)c3ccc(OC)cc23)CC1)NC(=O)c1ccccc1` (stereo not given) [PROGLUMETACIN] the IC50 [27] was > 10 µM (inactive) and the IC50 [28] was > 10 µM (inactive).

For `COc1ccc(-n2nc(CCC(=O)N(C)O)cc2-c2ccc(Cl)cc2)cc1` [TEPOXALIN], the IC50 [19] was 2.81 µM (active), the IC50 [20] was 4.11 µM (active) and the IC50 [21] was 6.55 µM (inactive). For the same compound, the IC50 [22] was 1.75 µM (active), the IC50 [23] was 0.662 µM (active) and the IC50 [25] was 2.08 µM (active).
